# How the values were obtained:
# [1] = target: serotonin 5-HT2a receptors (Homo sapiens, UniProt P28223); details: as described in PCT/DK04/000546; cited from earlier work
# rabbit model = details: as described in PCT/DK04/000546; cited from earlier work
# [2] = tested on: pigs sensitized to haloperidol; assay: dystonia in pigs sensitized to haloperidol; type: in vivo
# alfa1 adrenoceptors = details: as described in PCT/DK04/000546; cited from earlier work
# [3] = target: dopamine (DA) D1 receptors (Homo sapiens, UniProt P21728); details: as described in PCT/DK04/000546; cited from earlier work
# dopamine (DA) D1 receptors, sequence (P21728 whole entry): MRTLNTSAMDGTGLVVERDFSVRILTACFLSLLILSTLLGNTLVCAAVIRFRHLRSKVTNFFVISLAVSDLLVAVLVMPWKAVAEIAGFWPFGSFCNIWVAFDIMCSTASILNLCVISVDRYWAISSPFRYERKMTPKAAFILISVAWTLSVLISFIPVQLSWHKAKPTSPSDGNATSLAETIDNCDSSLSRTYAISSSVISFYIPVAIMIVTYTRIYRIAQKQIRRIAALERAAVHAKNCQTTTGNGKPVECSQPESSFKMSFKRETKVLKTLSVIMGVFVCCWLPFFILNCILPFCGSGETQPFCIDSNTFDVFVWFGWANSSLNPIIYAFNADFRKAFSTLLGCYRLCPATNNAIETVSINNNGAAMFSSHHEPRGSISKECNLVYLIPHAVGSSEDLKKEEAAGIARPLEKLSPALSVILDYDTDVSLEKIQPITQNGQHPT
# DA D2 receptors = DA D2 receptors (Homo sapiens, UniProt P14416); details: as described in PCT/DK04/000546; cited from earlier work
# DA D2 receptors, sequence (P14416 whole entry): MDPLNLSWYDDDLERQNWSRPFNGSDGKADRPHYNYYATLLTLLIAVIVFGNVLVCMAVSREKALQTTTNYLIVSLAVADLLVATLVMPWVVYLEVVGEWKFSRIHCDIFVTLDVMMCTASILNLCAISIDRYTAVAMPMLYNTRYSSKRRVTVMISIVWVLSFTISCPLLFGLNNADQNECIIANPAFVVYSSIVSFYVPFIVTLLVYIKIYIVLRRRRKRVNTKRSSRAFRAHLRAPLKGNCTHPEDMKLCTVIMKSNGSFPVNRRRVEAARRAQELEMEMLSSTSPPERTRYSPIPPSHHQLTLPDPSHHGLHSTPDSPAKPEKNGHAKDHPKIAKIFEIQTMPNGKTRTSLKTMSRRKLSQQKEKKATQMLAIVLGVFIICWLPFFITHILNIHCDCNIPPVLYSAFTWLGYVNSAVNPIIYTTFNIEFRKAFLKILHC
# CYP2D6 = CYP2D6 (Homo sapiens, UniProt P10635); details: as described in PCT/DK04/000546; cited from earlier work
# CYP2D6, sequence (P10635 whole entry): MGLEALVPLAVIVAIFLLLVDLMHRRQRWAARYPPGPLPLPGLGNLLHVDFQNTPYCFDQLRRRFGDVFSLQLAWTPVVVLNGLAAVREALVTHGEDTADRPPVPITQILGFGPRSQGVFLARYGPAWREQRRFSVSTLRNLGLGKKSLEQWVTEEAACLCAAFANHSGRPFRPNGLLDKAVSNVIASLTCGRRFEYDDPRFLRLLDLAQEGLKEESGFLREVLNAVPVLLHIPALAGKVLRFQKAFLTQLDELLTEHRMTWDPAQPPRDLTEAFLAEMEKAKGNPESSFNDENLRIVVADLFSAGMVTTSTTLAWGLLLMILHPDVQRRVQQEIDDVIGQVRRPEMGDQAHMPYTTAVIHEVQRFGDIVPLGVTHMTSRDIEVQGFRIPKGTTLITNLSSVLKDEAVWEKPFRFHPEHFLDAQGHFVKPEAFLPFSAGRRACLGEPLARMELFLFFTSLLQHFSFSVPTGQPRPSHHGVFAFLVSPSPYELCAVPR
# dopamine D2 receptors = dopamine D2 receptors (Homo sapiens, UniProt P14416); details: as described in PCT/DK04/000546; cited from earlier work
# dopamine D2 receptors, sequence (P14416 whole entry): as the sequence (P14416 whole entry) above
# dopamine D1 receptors = dopamine D1 receptors (Homo sapiens, UniProt P21728); details: as described in PCT/DK04/000546; cited from earlier work
# dopamine D1 receptors, sequence (P21728 whole entry): as the sequence (P21728 whole entry) above
# serotonin 5-HT2a receptors, sequence (P28223 whole entry): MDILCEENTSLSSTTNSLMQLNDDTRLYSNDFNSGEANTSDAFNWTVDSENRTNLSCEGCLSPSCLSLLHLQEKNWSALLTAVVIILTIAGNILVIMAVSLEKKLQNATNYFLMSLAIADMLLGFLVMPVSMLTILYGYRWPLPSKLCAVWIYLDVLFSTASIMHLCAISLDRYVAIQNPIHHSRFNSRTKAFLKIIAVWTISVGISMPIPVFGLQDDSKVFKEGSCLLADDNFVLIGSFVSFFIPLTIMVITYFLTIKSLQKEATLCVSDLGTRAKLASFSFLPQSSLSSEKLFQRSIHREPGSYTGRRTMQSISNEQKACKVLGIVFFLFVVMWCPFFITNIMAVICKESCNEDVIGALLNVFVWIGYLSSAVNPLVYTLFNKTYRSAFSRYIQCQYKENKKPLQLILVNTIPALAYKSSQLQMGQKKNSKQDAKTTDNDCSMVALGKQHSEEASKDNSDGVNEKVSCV
compound,measurement,setting,value
"CC1(C)CN([C@@H]2C[C@@H](c3ccccc3)c3ccc(Cl)cc32)CCN1 [Compound I, trans-1-((1R,3S)-6-chloro-3-phenylindan-1-yl)-3,3-dimethylpiperazine]",functional activity at serotonin 5-HT2a receptors,[1],antagonist
same,effect on the QT interval,rabbit model,relatively low effect
same,induction of dystonia (EPS liability),[2],did not induce dystonia
same,affinity for alfa1 adrenoceptors,alfa1 adrenoceptors,high affinity
same,affinity for dopamine (DA) D1 receptors,[3],high affinity
same,affinity for DA D2 receptors,DA D2 receptors,high affinity
same,inhibition of CYP2D6,CYP2D6,relatively weak inhibitor
same,functional activity at dopamine D2 receptors,dopamine D2 receptors,antagonist
same,functional activity at dopamine D1 receptors,dopamine D1 receptors,antagonist
